From patent US20230141603A1, “BENZODIAZEPINE DERIVATIVES AS GABA A GAMMA1 PAM” (Hoffmann-La Roche Inc., priority 2021, published 2023)

Target: T1, h-GABAA α5β2γ1 (Homo sapiens, UniProt P31644+Q8N1C3)
T1 construct: expressed in transfected cells; host or cells: HEK293F cells (ThermoFisher R79007), membranes
T1 sequence (P31644 32-462): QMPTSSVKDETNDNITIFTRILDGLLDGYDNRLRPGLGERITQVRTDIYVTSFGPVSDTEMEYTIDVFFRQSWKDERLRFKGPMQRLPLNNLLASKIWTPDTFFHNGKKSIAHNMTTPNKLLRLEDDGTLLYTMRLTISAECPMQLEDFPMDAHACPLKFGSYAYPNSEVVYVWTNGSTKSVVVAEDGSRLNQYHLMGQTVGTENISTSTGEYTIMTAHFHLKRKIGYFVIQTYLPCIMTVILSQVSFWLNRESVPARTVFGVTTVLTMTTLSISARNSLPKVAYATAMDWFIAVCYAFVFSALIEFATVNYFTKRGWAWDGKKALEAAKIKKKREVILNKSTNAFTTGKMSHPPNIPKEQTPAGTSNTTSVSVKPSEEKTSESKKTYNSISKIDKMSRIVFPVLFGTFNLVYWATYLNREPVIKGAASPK
T1 sequence (P47870 25-512 partner limits assumed): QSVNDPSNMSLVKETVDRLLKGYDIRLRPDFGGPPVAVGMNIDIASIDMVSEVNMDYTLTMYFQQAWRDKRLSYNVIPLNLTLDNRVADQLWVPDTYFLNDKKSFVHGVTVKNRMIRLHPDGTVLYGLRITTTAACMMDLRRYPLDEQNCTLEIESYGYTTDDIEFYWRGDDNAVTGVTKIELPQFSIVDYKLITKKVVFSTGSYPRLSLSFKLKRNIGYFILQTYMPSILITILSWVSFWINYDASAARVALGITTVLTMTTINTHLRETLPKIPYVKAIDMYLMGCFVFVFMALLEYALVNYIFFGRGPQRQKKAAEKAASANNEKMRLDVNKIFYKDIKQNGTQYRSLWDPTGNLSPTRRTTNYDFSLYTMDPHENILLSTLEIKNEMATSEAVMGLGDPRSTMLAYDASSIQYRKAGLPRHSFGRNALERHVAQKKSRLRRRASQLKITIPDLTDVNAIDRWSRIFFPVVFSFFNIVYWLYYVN
T1 sequence (Q8N1C3 36-465): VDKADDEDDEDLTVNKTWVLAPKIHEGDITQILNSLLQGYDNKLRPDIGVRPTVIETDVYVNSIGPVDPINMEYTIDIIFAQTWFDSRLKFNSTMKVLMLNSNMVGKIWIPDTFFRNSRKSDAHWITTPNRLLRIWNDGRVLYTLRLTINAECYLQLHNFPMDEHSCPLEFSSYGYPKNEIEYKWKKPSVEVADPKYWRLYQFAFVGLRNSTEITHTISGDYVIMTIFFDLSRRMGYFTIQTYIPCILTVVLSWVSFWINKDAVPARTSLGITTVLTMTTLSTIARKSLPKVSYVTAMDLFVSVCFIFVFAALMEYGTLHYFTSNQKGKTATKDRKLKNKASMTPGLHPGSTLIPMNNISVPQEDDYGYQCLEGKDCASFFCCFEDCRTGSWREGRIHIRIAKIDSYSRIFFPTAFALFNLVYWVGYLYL
Assay: Radioligand binding assay, [3H]RO7239181 competition, HEK293F membranes
Experimental: The affinity of compounds at GABAA γ1 subunit-containing receptors was measured by competition for [^3H]RO7239181 (67.3 Ci/mmol; Roche) binding to membranes from HEK293F cells (ThermoFisher R79007) expressing human (transiently transfected) receptors of composition […], α2β2γ1, α1β2γ1. For better protein expression of the α2 subunit-containing receptors, the 28 amino acid long signal peptide (Met1 to Ala28) of the human GABAA α2 subunit was substituted by the 31 amino acid long signal peptide (Met1 to Ser31) of human GABAA α5 subunit.
Harvested pellets from HEK293F cells expressing the different GABAA receptor subtypes were resuspended in Mannitol Buffer pH 7.2-7.4 (Mannitol 0.29M, Triethylamine 10 mM, Acetic acid 10 mM, EDTA 1 mM plus protease inhibitors (20 tablets Complete, Roche Diagnostics Cat. No. 05 056 489 001 per liter)), washed two times and then resuspended at 1:10 to 1:15 dilution in the same buffer. Cell disruption was performed by stirring the suspension in a Parr vessel #4637 at 435 psi for 15 minutes, and then the suspensions were centrifuged at 1000×g for 15 minutes at 4° C. (Beckman Avanti J-HC; rotor JS-4.2). The supernatant (S1) was transferred in a 21 Schott flask and the pellet (P1) was resuspended with Mannitol Buffer up to 175 ml. The resuspended pellet was transferred into a 250 ml Corning centrifugal beaker and centrifuged at 1500×g for 10 minutes at 4° C. (Beckman Avanti J-HC; rotor JS-4.2). The supernatant (S1) was then transferred in the 21 Schott flask and the pellet was discarded. The supernatants (S1) were centrifuged in 500 ml Beckman polypropylene centrifugal beaker at 15′000×g for 30 minutes at 4° C. (Beckman Avanti J-20 XP; rotor JLA-10.500). The pellet (P2) was resuspended with Mannitol Buffer 1:1 and frozen at −80° C. The supernatant (S2) was centrifuged in 100 ml Beckman polypropylene centrifugal tubes at 48000×g for 50 minutes at 4° C. (Beckman Avanti J-20 XP; rotor JA-18). The supernatant (S3) was discarded and the pellet (P3) was resuspended with 1:1 Mannitol Buffer. The P2 and P3 protein concentration was determined with the BIORAD Standard assay method with bovine serum albumin as standard and measured on the NANO-Drop 1000. The membrane suspension was aliquots (500 μl per tube) and stored at −80° C. until required. Membrane homogenates were resuspended and polytronised (Polytron PT1200E Kinematica AG) in Potassium Phosphate 10 mM, KCl 100 mM binding buffer at pH 7.4 to a final assay concentration determined with a previous experiment.
Radioligand binding assays were carried out in a volume of 200 μL (96-well plates) which contained 100 μL of cell membranes, [^3H]RO7239181 at a concentration of 1.5 nM (α5β2γ1) or 20-30 nM (α1β2γ1, α2β2γ1) and the test compound in the range of [0.3-10000]×10^−9 M. Nonspecific binding was defined by 10×10^−6 (α5β2γ1) and 30×10^−6 M RO7235136 and typically represented less than 5% (α5β2γ1) and less than 20% (α1β2γ1, α2β2γ1) of the total binding. Assays were incubated to equilibrium for 1 hour at 4° C. and then, membranes were filtered onto unifilter (96-well white microplate with bonded GF/C filters preincubated 20-50 minutes in 0.3% Polyethylenimine) with a Filtermate 196 harvester (Packard BioScience) and washed 4 times with cold Potassium Phosphate 10 mM pH 7.4, KCl 100 mM binding buffer. After drying, filter-retained radioactivity was detected by liquid scintillation counting. Ki values were calculated using Excel-Fit (Microsoft) and are the means of two determinations.

Row | SMILES | Ki [nM]
1 | Cc1nnc2n1-c1ccc(Br)c(Cl)c1C(c1c(F)cccc1F)=NC2 [Example 1, 8-bromo-7-chloro-6-(2,6-difluorophenyl)-1-methyl-4H-[1,2,4]triazolo[4,3-a][1,4]benzodiazepine] | 1.1
2 | Fc1ccccc1C1=NCc2nnc(C3CC3)n2-c2ccc(Br)c(Cl)c21 [Example 2, 8-bromo-7-chloro-1-cyclopropyl-6-(2-fluorophenyl)-4H-[1,2,4]triazolo[4,3-a][1,4]benzodiazepine] | 5.7
3 | Fc1ccccc1C1=NCc2nnc(-c3cccnn3)n2-c2ccc(Br)c(Cl)c21 [Example 3, 8-bromo-7-chloro-6-(2-fluorophenyl)-1-pyridazin-3-yl-4H-[1,2,4]triazolo[4,3-a][1,4]benzodiazepine] | 1.5
4 | Cc1nnc2n1-c1ccc(Cl)c(Cl)c1C(c1ccccc1F)=NC2 [Example 4, 7,8-dichloro-6-(2-fluorophenyl)-1-methyl-4H-[1,2,4]triazolo[4,3-a][1,4]benzodiazepine] | 5.4
5 | Cc1nnc2n1-c1ccc(Cl)c(Cl)c1C(c1c(F)cccc1F)=NC2 [Example 5, 7,8-dichloro-6-(2,6-difluorophenyl)-1-methyl-4H-[1,2,4]triazolo[4,3-a][1,4]benzodiazepine] | 0.8
6 | Cc1nnc2n1-c1ccc(C3CC3)c(Cl)c1C(c1c(F)cccc1F)=NC2 [Example 6, 7-chloro-8-cyclopropyl-6-(2,6-difluorophenyl)-1-methyl-4H-[1,2,4]triazolo[4,3-a][1,4]benzodiazepine] | 12.7
7 | Fc1cccc(F)c1C1=NCc2nncn2-c2ccc(Br)c(Cl)c21 [Example 7, 8-bromo-7-chloro-6-(2,6-difluorophenyl)-4H-[1,2,4]triazolo[4,3-a][1,4]benzodiazepine] | 0.4
8 | Fc1ccccc1C1=NCc2nncn2-c2ccc(Br)c(Cl)c21 [Example 8, 8-bromo-7-chloro-6-(2-fluorophenyl)-4H-[1,2,4]triazolo[4,3-a][1,4]benzodiazepine] | 2.3
9 | O=c1[nH]nc2n1-c1ccc(Cl)c(Cl)c1C(c1c(F)cccc1F)=NC2 [Example 9, 7,8-dichloro-6-(2,6-difluorophenyl)-2,4-dihydro-[1,2,4]triazolo[4,3-a][1,4]benzodiazepin-1-one] | 0.7
10 | Fc1ccccc1C1=NCc2nnc(-c3cccnn3)n2-c2ccc(Cl)c(Cl)c21 [Example 10, 7,8-dichloro-6-(2-fluorophenyl)-1-pyridazin-3-yl-4H-[1,2,4]triazolo[4,3-a][1,4]benzodiazepine] | 1.4
11 | Fc1cccc(F)c1C1=NCc2nnc(C3CCOCC3)n2-c2ccc(Cl)c(Cl)c21 [Example 11, 7,8-dichloro-6-(2,6-difluorophenyl)-1-tetrahydropyran-4-yl-4H-[1,2,4]triazolo[4,3-a][1,4]benzodiazepine] | 8.3
12 | Fc1cccc(F)c1C1=NCc2nnc(-c3ccncn3)n2-c2ccc(Cl)c(Cl)c21 [Example 12, 7,8-dichloro-6-(2,6-difluorophenyl)-1-pyrimidin-4-yl-4H-[1,2,4]triazolo[4,3-a][1,4]benzodiazepine] | 2.3
13 | O=c1[nH]nc2n1-c1ccc(Br)c(Cl)c1C(c1c(F)cccc1F)=NC2 [Example 13, 8-bromo-7-chloro-6-(2,6-difluorophenyl)-2,4-dihydro-[1,2,4]triazolo[4,3-a][1,4]benzodiazepin-1-one] | 1.1
14 | Fc1cccc(F)c1C1=NCc2nnc(-c3cccnn3)n2-c2ccc(Cl)c(Cl)c21 [Example 14, 7,8-dichloro-6-(2,6-difluorophenyl)-1-pyridazin-3-yl-4H-[1,2,4]triazolo[4,3-a][1,4]benzodiazepine] | 0.8
15 | Fc1cccc(F)c1C1=NCc2nncn2-c2ccc(Cl)c(Cl)c21 [Example 15, 7,8-dichloro-6-(2,6-difluorophenyl)-4H-[1,2,4]triazolo[4,3-a][1,4]benzodiazepine] | 0.9
16 | Cc1ccc2c(c1Cl)C(c1c(F)cccc1F)=NCc1n[nH]c(=O)n1-2 [Example 16, 7-chloro-6-(2,6-difluorophenyl)-8-methyl-2,4-dihydro-[1,2,4]triazolo[4,3-a][1,4]benzodiazepin-1-one] | 1.8
